Assay results published in patent publication US20220378706A1, “PHARMACEUTICAL COMPOSITION COMPRISING PDE9 INHIBITOR” (Eisai R&D Management Co., Ltd., priority 2017, published 2022).
Read-outs that look alike come from different tables or passages of the source.

Assay: Single dose clinical study: plasma Compound A pharmacokinetics
Assay type: in vivo, human
Conditions: human, plasma, po, plasma
Protocol: This was a single center, single dose, randomized, double blind, placebo controlled study in healthy subjects. It consisted of 4 parts: Parts A, B, C, and D. Each of the four study parts had 2 phases: Prerandomization Phase and Randomization Phase. The Prerandomization Phase lasted up to 30 days and consisted of a Screening Period and a Baseline Period, during which each subject's study eligibility was determined and baseline assessments were performed.
In Part A, there were 8 sequential cohorts of healthy adult subjects (18-50 years of age). Subjects were randomly assigned to Compound A or placebo in a ratio of 6:2, respectively. Subjects in the Compound A cohorts were treated with single ascending doses of 10, 25, 50, 100, 200, 400, 800, or 1200 mg.
In Part B, there were 4 cohorts of healthy adult subjects (18-50 years of age). There were 8 subjects in Cohort 1, with 6 subjects randomly assigned to receive single doses of Compound A (400 mg) and 2 subjects randomly assigned to receive placebo. There were 7 subjects in Cohort 2 and Cohort 3, each with 6 subjects randomly assigned to receive single doses of Compound A (100 and 200 mg, respectively) and 1 subject randomly assigned to receive placebo. The dose of 100 mg selected in Cohort 2 was based on preliminary analysis of Cohort 1 data; this dose was predicted from PK/PD modeling to achieve a sustained CSF cGMP increase from baseline of approximately 200% when administered to steady state, and thereby provided a potentially therapeutic dose for further evaluation in future studies. There were 7 subjects in Cohort 4, with 6 subjects randomly assigned to receive a single dose of Compound A (50 mg [n=3] or 75 mg [n=3]) and 1 subject randomly assigned to receive placebo. The doses for Cohorts 3 and 4 were selected based on PK/PD modeling of the data in Cohorts 1 and 2.
Subjects in Cohort 2 who had received Compound A 100 mg or placebo under fasted conditions (1st Treatment Period) also participated in an evaluation of food effect on the PK of Compound A (2nd Treatment Period). After a washout period of at least 13 days (or 5 half-lives of Compound A, whichever was longer), subjects were admitted to the clinic for baseline assessments (2nd Baseline Period) and then received a single dose of the same treatment (Compound A 100 mg or placebo) after consuming a high fat and high calorie meal over 30 minutes. Blood PK samples were collected at prespecified time points. Safety evaluations were also assessed. CSF was not collected for PD evaluation during the 2nd Treatment Period. A Follow Up Visit occurred on Day 10 of Treatment Period 2.
In Part C, there was 1 cohort of 8 healthy elderly subjects (65 to 85 years of age) randomly assigned to receive a single dose of Compound A 100 mg or placebo in a ratio of 6:2, respectively.
In Part D, 3 cohorts of healthy adult Japanese subjects were randomized in parallel. There were 7 subjects in each cohort and subjects were randomly assigned to receive single doses of Compound A (25, 100, or 400 mg) or placebo in a ratio of 6:1, respectively.
Blood samples for determination of plasma Compound A concentrations were collected from predose to 216 hours postdose. On Day 1, blood PK samples were collected at predose and postdose 0.5 (30 minutes), 1, 1.5, 2, 3, 4, 5, 6, 8, 12, and 18 hours. Thereafter, samples were collected on Day 2 (24 and 36 hours postdose), Day 3 (48 hours postdose), Day 4 (72 hours postdose), Day 5 (96 hours postdose), Day 6 (120 hours postdose), Day 7 (144 hours postdose), and Day 10 (216 hours postdose).
Blood samples for determination of plasma Compound A concentrations were collected from predose to 216 hours postdose. For all cohorts, blood PK samples were collected on Day 1 at predose and postdose at 0.5 (30 minutes), 1, 1.5, 2, 3, 4, 5, 6, 8, 10, 12, and 18 hours. […]

SMILES: COc1ncc(C)c(-c2ccc3c(c2)[nH]c(=O)c2cnn([C@H]4CCOC4)c23)c1C [Compound A, (S)-7-(2-methoxy-3,5-dimethylpyridin-4-yl)-1-(tetrahydrofuran-3-yl)-1H-pyrazolo[4,3-c]quin olin-4(5H)-one]
- Cmax (100 mg, Japanese Subjects (Part D), single oral 100 mg, read-out: Cmax GM (% CV)): 492 ng/mL
- Vd/F (100 mg, Japanese Subjects (Part D), single oral 100 mg, read-out: Vz/F GM (% CV)): 240 L
- half-life (100 mg, Japanese Subjects (Part D), single oral 100 mg, read-out: t1/2 Mean (SD) (converted)): 23.9 h
- Tmax (100 mg, Japanese Subjects (Part D), single oral 100 mg, read-out: tmax Median): 2.52 h
- AUC(0-inf) (100 mg, Non-Japanese Subjects (Parts A,B), single oral 100 mg, read-out: AUC(0-inf) GM): 15000 ng·h/mL
- Cmax (100 mg, Non-Japanese Subjects (Parts A,B), single oral 100 mg, read-out: Cmax GM (% CV)): 373 ng/mL
- Vd/F (100 mg, Non-Japanese Subjects (Parts A,B), single oral 100 mg, read-out: Vz/F GM (% CV)): 268 L
- half-life (100 mg, Non-Japanese Subjects (Parts A,B), single oral 100 mg, read-out: t1/2 Mean (SD) (converted)): 28.6 h
- Tmax (100 mg, Non-Japanese Subjects (Parts A,B), single oral 100 mg, read-out: tmax Median): 2.99 h
- AUC(0-t) (100 mg, Part B 100 mg cohort, single oral 100 mg, Fasted, read-out: AUC (0-24 h) GM (% CV)): 6140 ng·h/mL
- AUC(0-t) (100 mg, Part B 100 mg cohort, single oral 100 mg, Fasted, read-out: AUC (0-30 h) GM (% CV)): 7360 ng·h/mL
- AUC(0-t) (100 mg, Part B 100 mg cohort, single oral 100 mg, Fasted, read-out: AUC (0-72 h) GM (% CV)): 12200 ng·h/mL
- AUC(0-inf) (100 mg, Part B 100 mg cohort, single oral 100 mg, Fasted, read-out: AUC (0-inf) GM (% CV)): 14500 ng·h/mL
- AUC(0-t) (100 mg, Part B 100 mg cohort, single oral 100 mg, Fasted, read-out: AUC (0-t) GM (% CV)): 14400 ng·h/mL
- Cmax (100 mg, Part B 100 mg cohort, single oral 100 mg, Fasted, read-out: Cmax GM (%CV)): 371 ng/mL
- Vd/F (100 mg, Part B 100 mg cohort, single oral 100 mg, Fasted, read-out: Vz/F GM (% CV)): 252 L
- half-life (100 mg, Part B 100 mg cohort, single oral 100 mg, Fasted, read-out: t1/2 Mean (SD) (converted)): 25.7 h
- Tmax (100 mg, Part B 100 mg cohort, single oral 100 mg, Fasted, read-out: tmax Median (Min, Max)): 2.99 h
- AUC(0-t) (100 mg, Part B 100 mg cohort, single oral 100 mg, Fed (high-fat meal), read-out: AUC (0-24 h) GM (% CV)): 7610 ng·h/mL
- AUC(0-t) (100 mg, Part B 100 mg cohort, single oral 100 mg, Fed (high-fat meal), read-out: AUC (0-30 h) GM (% CV)): 8980 ng·h/mL
- AUC(0-t) (100 mg, Part B 100 mg cohort, single oral 100 mg, Fed (high-fat meal), read-out: AUC (0-72 h) GM (% CV)): 14500 ng·h/mL
- AUC(0-inf) (100 mg, Part B 100 mg cohort, single oral 100 mg, Fed (high-fat meal), read-out: AUC (0-inf) GM (% CV)): 17300 ng·h/mL
- AUC(0-t) (100 mg, Part B 100 mg cohort, single oral 100 mg, Fed (high-fat meal), read-out: AUC (0-t) GM (% CV)): 17100 ng·h/mL
- Cmax (100 mg, Part B 100 mg cohort, single oral 100 mg, Fed (high-fat meal), read-out: Cmax GM (%CV)): 536 ng/mL
- Vd/F (100 mg, Part B 100 mg cohort, single oral 100 mg, Fed (high-fat meal), read-out: Vz/F GM (% CV)): 212 L
- half-life (100 mg, Part B 100 mg cohort, single oral 100 mg, Fed (high-fat meal), read-out: t1/2 Mean (SD) (converted)): 26 h
- Tmax (100 mg, Part B 100 mg cohort, single oral 100 mg, Fed (high-fat meal), read-out: tmax Median (Min, Max)): 3.49 h
- AUC(0-t) (100 mg, healthy adults (Parts A,B), single oral 100 mg, fasted, read-out: AUC(0-24 h) GM): 5730 ng·h/mL
- AUC(0-t) (100 mg, healthy adults (Parts A,B), single oral 100 mg, fasted, read-out: AUC(0-30 h) GM): 6890 ng·h/mL
- AUC(0-t) (100 mg, healthy adults (Parts A,B), single oral 100 mg, fasted, read-out: AUC(0-72 h) GM): 11900 ng·h/mL
- AUC(0-inf) (100 mg, healthy adults (Parts A,B), single oral 100 mg, fasted, read-out: AUC(0-inf) GM): 15000 ng·h/mL
- AUC(0-t) (100 mg, healthy adults (Parts A,B), single oral 100 mg, fasted, read-out: AUC(0-t) GM): 14800 ng·h/mL
- Cmax (100 mg, healthy adults (Parts A,B), single oral 100 mg, fasted, read-out: Cmax GM): 373 ng/mL
- Vd/F (100 mg, healthy adults (Parts A,B), single oral 100 mg, fasted, read-out: Vz/F GM): 268 L
- half-life (100 mg, healthy adults (Parts A,B), single oral 100 mg, fasted, read-out: t1/2 Mean (converted)): 28.6 h
- Tmax (100 mg, healthy adults (Parts A,B), single oral 100 mg, fasted, read-out: tmax Median): 2.99 h
- AUC(0-inf) (100 mg, healthy elderly subjects (Part C), single oral 100 mg, read-out: AUC (0-inf) GM (% CV)): 21300 ng·h/mL
- Cmax (100 mg, healthy elderly subjects (Part C), single oral 100 mg, read-out: Cmax GM (% CV)): 543 ng/mL
- Vd/F (100 mg, healthy elderly subjects (Part C), single oral 100 mg, read-out: Vz/F GM (% CV)): 253 L
- half-life (100 mg, healthy elderly subjects (Part C), single oral 100 mg, read-out: t1/2 Mean (SD) (converted)): 38.1 h
- Tmax (100 mg, healthy elderly subjects (Part C), single oral 100 mg, read-out: tmax Median (Min, Max)): 2.6 h
- AUC(0-t) (200 mg, healthy adults (Parts A,B), single oral 200 mg, fasted, read-out: AUC(0-24 h) GM): 7800 ng·h/mL
- AUC(0-t) (200 mg, healthy adults (Parts A,B), single oral 200 mg, fasted, read-out: AUC(0-30 h) GM): 9440 ng·h/mL
- AUC(0-t) (200 mg, healthy adults (Parts A,B), single oral 200 mg, fasted, read-out: AUC(0-72 h) GM): 16800 ng·h/mL
- AUC(0-inf) (200 mg, healthy adults (Parts A,B), single oral 200 mg, fasted, read-out: AUC(0-inf) GM): 22400 ng·h/mL
- AUC(0-t) (200 mg, healthy adults (Parts A,B), single oral 200 mg, fasted, read-out: AUC(0-t) GM): 22000 ng·h/mL
- Cmax (200 mg, healthy adults (Parts A,B), single oral 200 mg, fasted, read-out: Cmax GM): 539 ng/mL
- Vd/F (200 mg, healthy adults (Parts A,B), single oral 200 mg, fasted, read-out: Vz/F GM): 384 L
- half-life (200 mg, healthy adults (Parts A,B), single oral 200 mg, fasted, read-out: t1/2 Mean (converted)): 30.9 h
- Tmax (200 mg, healthy adults (Parts A,B), single oral 200 mg, fasted, read-out: tmax Median): 2 h
- AUC(0-inf) (400 mg, Japanese Subjects (Part D), single oral 400 mg, read-out: AUC(0-inf) GM): 46500 ng·h/mL
- Cmax (400 mg, Japanese Subjects (Part D), single oral 400 mg, read-out: Cmax GM (% CV)): 1180 ng/mL
- Vd/F (400 mg, Japanese Subjects (Part D), single oral 400 mg, read-out: Vz/F GM (% CV)): 364 L
- half-life (400 mg, Japanese Subjects (Part D), single oral 400 mg, read-out: t1/2 Mean (SD) (converted)): 30 h
- Tmax (400 mg, Japanese Subjects (Part D), single oral 400 mg, read-out: tmax Median): 2.25 h
